Experimental data reported in patent US12129312B2, “Peptide compound, application thereof and composition containing same” (priority 2017, dated 2024).
Numbered stars: 1 amine (or outer) side, 2 acyl side, 3 side chain; on linkers, the order of the positions; unused ones are H or OH. Square brackets hold non-standard residues; d marks the D form. Peptide text beside a SMILES is read from it. * marks the point of attachment. Bpa = N[C@@H](Cc1ccc(C(=O)c2ccccc2)cc1)C(=O)O; X6 = CCCN([C@@H](CC(C)C)C(=O)[*:2])[*:1]; X4 = O=C([C@@H]1Cc2ccsc2CN1[*:1])[*:2]; X5 = O=C([C@H]1c2ccccc2CCN1[*:1])[*:2]; 1Nal = N[C@@H](Cc1cccc2ccccc12)C(=O)O; 2Nal = N[C@@H](Cc1ccc2ccccc2c1)C(=O)O; Tiq1c(1S) = O=C(O)[C@H]1NCCc2ccccc21; X10 = CN(C)[C@H](Cc1ccc(O)cc1)C(=O)*; dNMeY = CN[C@H](Cc1ccc(O)cc1)C(=O)O; Hydrocinnamoyl = O=C(CCc1ccccc1)*; NEtLeu = CCN[C@@H](CC(C)C)C(=O)O; NMeF = CN[C@@H](Cc1ccccc1)C(=O)O; Tic = O=C(O)[C@@H]1Cc2ccccc2CN1; NMeL = CN[C@@H](CC(C)C)C(=O)O; NMeS = CN[C@@H](CO)C(=O)O; Pip = O=C(O)[C@@H]1CCCCN1; Thz = O=C(O)[C@@H]1CSCN1; Aze = O=C(O)[C@@H]1CCN1

Biological target: T1, human Chemokine like receptor 1 (Homo sapiens, UniProt Q99788)
T1 construct: host or cells: U2OS (Tango CMKLR1-bla U2OS)
T1 sequence (Q99788 1-373): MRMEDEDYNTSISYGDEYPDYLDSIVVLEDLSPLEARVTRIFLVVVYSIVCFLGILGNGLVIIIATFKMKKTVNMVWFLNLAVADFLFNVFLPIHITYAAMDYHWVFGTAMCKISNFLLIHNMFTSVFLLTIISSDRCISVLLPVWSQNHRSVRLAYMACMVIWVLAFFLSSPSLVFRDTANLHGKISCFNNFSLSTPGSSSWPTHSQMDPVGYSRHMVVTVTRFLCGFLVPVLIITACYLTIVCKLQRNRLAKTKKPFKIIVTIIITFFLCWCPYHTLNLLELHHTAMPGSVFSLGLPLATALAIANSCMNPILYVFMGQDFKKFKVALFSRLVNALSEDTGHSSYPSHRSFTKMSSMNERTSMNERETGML
Assay: Activation of Tango CMKLR1-bla U2OS cells (beta-lactamase FRET reporter)
Format: cell-based
Conditions: determination by the method of Effect Embodiment 1; read-out: EC50
Protocol: The polypeptide sequences described above are the polypeptide sequences disclosed in the patent JP2010-229093A of BANYU PHARMA CO LTD: (D-Tyr)-Phe-Leu-Pro-(D-Ser)-Gln-Phe-(D-Ala)-Tic-Ser was used as a positive control (SEQ ID NO: 102).
The activation of the compound on Tango™ CMKLR1-bla U2OS cells (Invitrogen Cat. nos. K1551) was tested.
The activation of each compound in the above experiments on Tango™ CMKLR1-bla U2OS cells was determined as follows:
Day 1: Cell Seeding on Plate
2. The medium was removed, and the cells were washed with DPBS twice, followed by addition of 3 mL of 0.05% trypsin, and placed in a 37° C., 5% CO2 incubator (Thermo Fisher, Waltham, Massachusetts, USA) for 3-5 minutes. After the cells were rounded, 3-5 mL of medium (medium formula: DMEM 90%, Dialyzed FBS 10%, NEAA 0.1 mM, HEPES (pH 7.3) 25 mM, Penicillin 100 U/mL, Streptomycin 100 μg/mL) was added to terminate digestion.
2. The digested cells were transferred to a 15 mL centrifuge tube (430790, Corning), centrifuged at 1000 rpm for 5 minutes (5810R, Eppendorf, Hamburg, Germany), and the supernatant was discarded.
3. 7 mL of medium (DMEM+10% FBS) was added, blowed into a single cell suspension, counted by a cell counter, and adjusted the cell suspension to a desired cell density of 250,000/mL with the medium.
4. The cell suspension was seeded into a 384-well cell plate (Corning 3712) in 40 μL/well to make the number of cells 10000 cells/well, and 32 μL of medium was added to the blank control.
5. The incubation was performed overnight at 37° C. under 5% CO2.
Day 2: Dosing and Testing
1. Preparation of 200× Compound Plate
1.1 The test compound was formulated into a 10 mM working solution in DMSO.
1.2 45 μL of 10 mM test compound was added to the 2nd column of rows A to P in the Echo-384 well plate. The compound was subjected to a 3-fold dilution with Precision (30 μL of DMSO was added to the 3rd to 11th columns; 15 μL of the drug solution was pipetted from the 2nd column to the 3rd column, blown and evenly mixed; then 15 μL of the drug solution was pipetted from the 3rd column to the 4th column, blown and evenly mixed; the drugs was subjected to a 3-fold dilution to obtain 10 concentrations in total). The 1st and 12th columns of the Echo-384 well plate were supplemented with 30 μL of DMSO.
2. Preparation of Intermediate Plate
500 nL, i.e., 0.5 μL of the diluted compound (or DMSO) in the 200× compound plate was transferred into the corresponding position of V-bottom 384-well plate with Echo. 20 μL of medium was added to each well, centrifuged, shaken and evenly mixed. The concentration of the drugs in each well of the 2nd to 11th column of intermediate plate (i.e., 5× compound plate) were shown in following Table 4.
3.1 The cell plate was taken out from the incubator and observed under a microscope. The diluted compound or DMSO in the intermediate plate was added to the cell plate in 10 μL/well in the corresponding cell plate, and 40 μL of medium was pre-filled in each well.
3.2 The cells were incubated at 37° C. under 5% CO2 for 4 hours.
4.1 1 mM CCF4-AM, solution B, Solution C, and Solution D were used to prepare an appropriate amount of 6× detection solution. The LiveBLAzer™-FRET B/G Loading kit (K1095, Thermo Fisher, Waltham, Massachusetts, USA) kit containing CCF-4AM and solutionB, solutionC, and solutionD was also purchased from invitrogen (K1157, Thermo Fisher, Waltham, Massachusetts, USA).
4.2 The cells were observed under a microscope and the cell plate was equilibrated to room temperature.
4.3 6 μL of CCF-4AM dissolved solution A, 60 μL of solution B, 904 μL of solution C and 30 μL of solution D were pipetted in an EP tube, blown, and evenly mixed to obtain a 6× detection solution. The prepared 6× detection solution was pipetted to a 384-well plate in 10 μL/well.

| Structure (SMILES) | EC50 |
| --- | --- |
| C[C@@H](NC(=O)[C@H](Cc1ccccc1)NC(=O)[C@H](CCC(N)=O)NC(=O)[C@@H](CO)NC(=O)[C@@H]1CCCN1C(=O)[C@H](Cc1ccccc1)N(C)C(=O)[C@H](Cc1ccccc1)NC(=O)[C@H](N)Cc1ccc(O)cc1)C(=O)N1Cc2ccccc2C[C@H]1C(=O)N[C@@H](CO)C(=O)O [YW-100, (D-Tyr)-Phe-(NMe-Phe)-Pro-(D-Ser)-Gln-Phe-(D-Ala)-Tic-Ser-OH] (H-[dY]F[NMeF]P[dS]QF[dA][Tic]S-OH) | 42 nM |
| CC(C)C[C@H](NC(=O)[C@H](Cc1ccccc1)NC(=O)[C@H](N)Cc1ccc(O)cc1)C(=O)N1CCC[C@H]1C(=O)N[C@H](CO)C(=O)N[C@@H](CCC(N)=O)C(=O)N[C@@H](Cc1ccccc1)C(=O)N[C@H](C)C(=O)N1CCCC[C@H]1C(=O)N[C@@H](CO)C(=O)O [YW-90, (D-Tyr)-Phe-Leu-Pro-(D-Ser)-Gln-Phe-(D-Ala)-HoPro-Ser-OH] (H-[dY]FLP[dS]QF[dA][Pip]S-OH) | > 50000 nM |
| CCN(C(=O)[C@H](Cc1ccccc1)NC(=O)[C@@H](Cc1ccc(O)cc1)NC(=O)CCc1ccccc1)[C@@H](CC(C)C)C(=O)N1CCC[C@H]1C(=O)N[C@H](CO)C(=O)N[C@@H](CCC(N)=O)C(=O)N[C@@H](Cc1ccccc1)C(=O)N[C@H](C)C(=O)N1Cc2ccccc2C[C@H]1C(=O)N[C@@H](CO)C(=O)O [YW-185, 3-Phenylpropanoyl-(D-Tyr)-Phe-(NEt-Leu)-Pro-(D-Ser)-Gln-Phe-(D-Ala)-Tic-Ser] (Hydrocinnamoyl-[dY]F[NEtLeu]P[dS]QF[dA][Tic]S-OH) | 5.9 nM |
| CC(C)C[C@H](NC(=O)[C@H](Cc1ccccc1)NC(=O)[C@H](N)Cc1ccc(O)cc1)C(=O)N1CC[C@H]1C(=O)N[C@H](CO)C(=O)N[C@@H](CCC(N)=O)C(=O)N[C@@H](Cc1ccccc1)C(=O)N[C@H](C)C(=O)N1Cc2ccccc2C[C@H]1C(=O)N[C@@H](CO)C(=O)O [YW-115, (D-Tyr)-Phe-Leu-Aze-(D-Ser)-Gln-Phe-(D-Ala)-Tic-Ser-OH] (H-[dY]FL[Aze][dS]QF[dA][Tic]S-OH) | 190 nM |
| CC(C)C[C@H](NC(=O)[C@H](Cc1ccccc1)NC(=O)[C@H](N)Cc1ccc(O)cc1)C(=O)N1CCC[C@H]1C(=O)N[C@H](CO)C(=O)N[C@@H](CCC(N)=O)C(=O)N[C@@H](Cc1ccc(C(=O)c2ccccc2)cc1)C(=O)N[C@H](C)C(=O)N1Cc2ccccc2C[C@H]1C(=O)N[C@@H](CO)C(=O)O [YW-119, (D-Tyr)-Phe-Leu-Pro-(D-Ser)-Gln-Bpa-(D-Ala)-Tic-Ser-OH] (H-[dY]FLP[dS]Q[Bpa][dA][Tic]S-OH) | 9.9 nM |
| CN[C@H](Cc1ccc(O)cc1)C(=O)N[C@@H](Cc1ccccc1)C(=O)N(C)[C@@H](CC(C)C)C(=O)N1CSC[C@H]1C(=O)N[C@H](CO)C(=O)N[C@@H](CCC(N)=O)C(=O)N[C@@H](Cc1ccc2ccccc2c1)C(=O)N[C@H](C)C(=O)N1Cc2ccccc2C[C@H]1C(=O)N[C@@H](CO)C(=O)O [YW-148, (D-NMe-Tyr)-Phe-(NMe-Leu)-Thz-(D-Ser)-Gln-2Nal-(D-Ala)-Tic-Ser-OH] (H-[dNMeY]F[NMeL][Thz][dS]Q[2Nal][dA][Tic]S-OH) | 0.5 nM |
| CN[C@H](Cc1ccc(O)cc1)C(=O)N[C@@H](Cc1ccccc1)C(=O)N(C)[C@@H](CC(C)C)C(=O)N1CCC[C@H]1C(=O)N[C@H](CO)C(=O)N[C@@H](CCC(N)=O)C(=O)N[C@@H](Cc1ccc2ccccc2c1)C(=O)N[C@H](C)C(=O)N1Cc2ccccc2C[C@H]1C(=O)N(C)[C@@H](CO)C(=O)O [YW-146, (D-NMe-Tyr)-Phe-(NMe-Leu)-Pro-(D-Ser)-Gln-2Nal-(D-Ala)-Tic-(NMe-Ser)-OH] (H-[dNMeY]F[NMeL]P[dS]Q[2Nal][dA][Tic][NMeS]-OH) | 1.4 nM |
| CC(C)C[C@H](NC(=O)[C@H](Cc1ccccc1)NC(=O)[C@H](N)Cc1ccc(O)cc1)C(=O)N1CCC[C@H]1C(=O)N[C@H](CO)C(=O)N[C@@H](CCC(N)=O)C(=O)N[C@@H](Cc1ccccc1)C(=O)N[C@H](C)C(=O)N1Cc2sccc2C[C@H]1C(=O)N[C@@H](CO)C(=O)O [YW-158, (D-Tyr)-Phe-Leu-Pro-(D-Ser)-Gln-Phe-(D-Ala)-TP5C-Ser-OH] (H-[dY]FLP[dS]QF[dA][X4]S-OH; N-terminus assumed) | 65 nM |
| CC(C)C[C@@H](C(=O)N1CCC[C@H]1C(=O)N[C@H](CO)C(=O)N[C@@H](CCC(N)=O)C(=O)N[C@@H](Cc1ccccc1)C(=O)N[C@H](C)C(=O)N1Cc2ccccc2C[C@H]1C(=O)N[C@@H](CO)C(=O)O)N(C)C(=O)[C@H](Cc1ccccc1)NC(=O)[C@@H](Cc1ccc(O)cc1)N(C)C [YW-192, DiMe-(D-Tyr)-Phe-(NMe-Leu)-Pro-(D-Ser)-Gln-Phe-(D-Ala)-Tic-Ser] (X10-F[NMeL]P[dS]QF[dA][Tic]S-OH) | 2.6 nM |
| CN[C@H](Cc1ccc(O)cc1)C(=O)N[C@@H](Cc1ccccc1)C(=O)N(C)[C@@H](CC(C)C)C(=O)N1CSC[C@H]1C(=O)N[C@H](CO)C(=O)N[C@@H](CCC(N)=O)C(=O)N[C@@H](Cc1cccc2ccccc12)C(=O)N[C@H](C)C(=O)N1Cc2ccccc2C[C@H]1C(=O)N(C)[C@@H](CO)C(=O)O [YW-142, (D-NMe-Tyr)-Phe-(NMe-Leu)-Thz-(D-Ser)-Gln-1Nal-(D-Ala)-Tic-(NMe-Ser)-OH] (H-[dNMeY]F[NMeL][Thz][dS]Q[1Nal][dA][Tic][NMeS]-OH; N-terminus assumed) | 0.9 nM |
| CC(C)C[C@H](NC(=O)[C@H](Cc1ccccc1)NC(=O)[C@H](N)Cc1ccc(O)cc1)C(=O)N1CCC[C@H]1C(=O)N[C@H](CO)C(=O)N[C@@H](CCC(N)=O)C(=O)N[C@@H](Cc1ccccc1)C(=O)N[C@H](C)C(=O)N1CCc2ccccc2[C@H]1C(=O)N[C@@H](CO)C(=O)O [YW-150, (D-Tyr)-Phe-Leu-Pro-(D-Ser)-Gln-Phe-(D-Ala)-Ti1c-Ser-OH] (H-[dY]FLP[dS]QF[dA][Tiq1c(1S)]S-OH) | 62 nM |
| CC(C)C[C@@H](C(=O)N1CCC[C@H]1C(=O)N[C@H](CO)C(=O)N[C@@H](CCC(N)=O)C(=O)N[C@@H](Cc1ccccc1)C(=O)N[C@H](C)C(=O)N1CCc2ccccc2[C@@H]1C(=O)N[C@@H](CO)C(=O)O)N(C)C(=O)[C@H](Cc1ccccc1)NC(=O)[C@H](N)Cc1ccc(O)cc1 [YW-153, (D-Tyr)-Phe-(NMe-Leu)-Pro-(D-Ser)-Gln-Phe-(D-Ala)-D-Ti1c-Ser-OH] (H-[dY]F[NMeL]P[dS]QF[dA][X5]S-OH) | 8.5 nM |
| CCCN(C(=O)[C@H](Cc1ccccc1)NC(=O)[C@@H](Cc1ccc(O)cc1)NC(=O)CCc1ccccc1)[C@@H](CC(C)C)C(=O)N1CCC[C@H]1C(=O)N[C@H](CO)C(=O)N[C@@H](CCC(N)=O)C(=O)N[C@@H](Cc1ccccc1)C(=O)N[C@H](C)C(=O)N1Cc2ccccc2C[C@H]1C(=O)N[C@@H](CO)C(=O)O [YW-186, 3-Phenylpropanoyl-(D-Tyr)-Phe-(NPr-Leu)-Pro-(D-Ser)-Gln-Phe-(D-Ala)-Tic-Ser] (Hydrocinnamoyl-[dY]F[X6]P[dS]QF[dA][Tic]S-OH) | 11 nM |
